Columns and labels:
LXRβ = LXRβ (Homo sapiens, UniProt P55055); test: cell-based biosensor assay
LXRα = LXRα (Homo sapiens, UniProt Q13133); test: cell-based biosensor assay; conditions: read-out: median effective concentration (EC50) for LXRα
mouse melanoma = test: syngeneic mouse melanoma model; format: in vivo
[1] = test system: melanoma, glioblastoma, TNBC, ovarian cancer, and lung cancer; test: syngeneic and human xenograft mouse tumor models, primary tumor growth; format: in vivo
cancer cells = test: cancer cell invasion in vitro; format: cell-based
endothelial cells = test: endothelial recruitment in vitro; format: cell-based
MDSCs = test: reduction of MDSCs in circulation and in tumors; format: in vivo
ApoE = ApoE gene expression induction in cancer cells; format: cell-based; conditions: compared to control cells
TNBC metastasis = test: mouse model of TNBC metastasis; conditions: in vivo
tumor growth = tumor growth studies, minimum efficacious dose and exposure; format: in vivo
[2] = molecular target: human ether-n-go-go-related gene (hERG) channel (Homo sapiens, UniProt Q12809); test: in vitro hERG assay; format: cell-based
[3] = safety pharmacology, ECG and heart rate in dogs; format: in vivo
[4] = oral PK study in CD-1 mice; format: in vivo
[5] = oral PK study in Sprague-Dawley rats; format: in vivo
[6] = oral PK study in male Beagle dogs; format: in vivo; conditions: dog, plasma
[7] = oral PK study in Cynomolgus monkeys; format: in vivo; conditions: cynomolgus monkey, plasma
CYP2E1 = CYP2E1 (Homo sapiens, UniProt P05181); test: in vitro CYP metabolism; format: in vitro ADME
CYP2C9 = CYP2C9 (Homo sapiens, UniProt P11712); test: in vitro CYP metabolism; format: in vitro ADME
Sequence of CYP2C9 (P11712 whole entry): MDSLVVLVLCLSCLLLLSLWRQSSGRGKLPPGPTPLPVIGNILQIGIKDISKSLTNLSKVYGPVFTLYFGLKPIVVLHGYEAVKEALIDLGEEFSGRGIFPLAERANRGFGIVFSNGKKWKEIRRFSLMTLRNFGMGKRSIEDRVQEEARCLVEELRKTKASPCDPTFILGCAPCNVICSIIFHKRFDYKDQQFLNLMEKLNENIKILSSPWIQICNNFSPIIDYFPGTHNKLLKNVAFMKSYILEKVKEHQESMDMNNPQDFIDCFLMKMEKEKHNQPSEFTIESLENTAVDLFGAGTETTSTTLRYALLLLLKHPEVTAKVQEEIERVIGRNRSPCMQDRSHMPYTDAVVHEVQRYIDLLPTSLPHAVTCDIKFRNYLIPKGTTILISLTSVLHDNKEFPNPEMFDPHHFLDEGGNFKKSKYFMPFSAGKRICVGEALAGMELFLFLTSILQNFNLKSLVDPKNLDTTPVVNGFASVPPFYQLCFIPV

CYP2C19 = CYP2C19 (Homo sapiens, UniProt P33261); test: in vitro CYP metabolism; format: in vitro ADME
Sequence of CYP2C19 (P33261 whole entry): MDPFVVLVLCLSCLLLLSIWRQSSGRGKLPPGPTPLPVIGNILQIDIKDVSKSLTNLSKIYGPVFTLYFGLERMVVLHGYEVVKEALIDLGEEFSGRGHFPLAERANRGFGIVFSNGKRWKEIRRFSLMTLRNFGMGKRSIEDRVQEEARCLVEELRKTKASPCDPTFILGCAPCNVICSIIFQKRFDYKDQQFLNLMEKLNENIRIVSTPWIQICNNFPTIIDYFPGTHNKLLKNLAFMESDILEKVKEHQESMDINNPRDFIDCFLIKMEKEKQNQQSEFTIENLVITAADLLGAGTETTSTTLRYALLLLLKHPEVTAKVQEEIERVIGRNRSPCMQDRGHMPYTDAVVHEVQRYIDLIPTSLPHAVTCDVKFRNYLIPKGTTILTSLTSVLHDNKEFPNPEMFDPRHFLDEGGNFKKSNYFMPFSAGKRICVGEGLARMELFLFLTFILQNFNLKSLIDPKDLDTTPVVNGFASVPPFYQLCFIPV

CYP2C8 = CYP2C8 (Homo sapiens, UniProt P10632); test: in vitro CYP450 inhibition; format: in vitro ADME; conditions: read-out: 50% inhibitory concentration [IC50] CYP2C8
2B6 = 2B6 (Homo sapiens, UniProt P20813); test: in vitro CYP450 inhibition; format: in vitro ADME
Sequence of 2B6 (P20813 whole entry): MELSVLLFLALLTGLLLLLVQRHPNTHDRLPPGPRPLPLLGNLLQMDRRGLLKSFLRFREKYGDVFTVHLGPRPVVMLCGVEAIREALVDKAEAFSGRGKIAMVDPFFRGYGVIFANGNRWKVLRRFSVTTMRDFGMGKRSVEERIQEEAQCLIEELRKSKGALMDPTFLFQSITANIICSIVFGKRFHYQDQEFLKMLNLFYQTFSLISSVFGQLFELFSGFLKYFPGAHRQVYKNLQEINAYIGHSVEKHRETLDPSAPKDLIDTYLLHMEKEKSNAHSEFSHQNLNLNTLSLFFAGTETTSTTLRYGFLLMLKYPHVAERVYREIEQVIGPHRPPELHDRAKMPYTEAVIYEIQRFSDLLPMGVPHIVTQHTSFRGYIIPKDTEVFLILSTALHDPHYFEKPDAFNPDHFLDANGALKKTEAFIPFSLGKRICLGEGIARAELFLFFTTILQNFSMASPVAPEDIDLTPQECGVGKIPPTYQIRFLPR

1A1 = 1A1 (Homo sapiens, UniProt P04798); test: in vitro CYP450 inhibition; format: in vitro ADME
2A6 = 2A6 (Homo sapiens, UniProt P11509); test: in vitro CYP450 inhibition; format: in vitro ADME
2C9 = 2C9 (Homo sapiens, UniProt P11712); test: in vitro CYP450 inhibition; format: in vitro ADME
Sequence of 2C9 (P11712 whole entry): as the sequence (P11712 whole entry) above

2C19 = 2C19 (Homo sapiens, UniProt P33261); test: in vitro CYP450 inhibition; format: in vitro ADME
Sequence of 2C19 (P33261 whole entry): as the sequence (P33261 whole entry) above

2D6 = 2D6 (Homo sapiens, UniProt P10635); test: in vitro CYP450 inhibition; format: in vitro ADME
Sequence of 2D6 (P10635 whole entry): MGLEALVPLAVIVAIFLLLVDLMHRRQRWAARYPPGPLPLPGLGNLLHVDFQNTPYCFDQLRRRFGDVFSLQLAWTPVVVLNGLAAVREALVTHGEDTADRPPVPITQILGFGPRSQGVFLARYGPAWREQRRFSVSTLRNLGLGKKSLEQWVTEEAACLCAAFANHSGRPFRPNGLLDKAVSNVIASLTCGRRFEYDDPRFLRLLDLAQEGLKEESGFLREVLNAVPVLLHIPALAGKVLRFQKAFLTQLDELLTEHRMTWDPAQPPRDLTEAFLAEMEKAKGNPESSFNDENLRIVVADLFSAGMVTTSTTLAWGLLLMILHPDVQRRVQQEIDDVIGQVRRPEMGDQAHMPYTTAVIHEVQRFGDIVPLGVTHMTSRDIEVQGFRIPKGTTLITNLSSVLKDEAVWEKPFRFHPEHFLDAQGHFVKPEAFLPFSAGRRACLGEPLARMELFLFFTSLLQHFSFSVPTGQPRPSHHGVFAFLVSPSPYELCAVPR

2E1 = 2E1 (Homo sapiens, UniProt P05181); test: in vitro CYP450 inhibition; format: in vitro ADME
3A4 = 3A4 (Homo sapiens, UniProt P08684); test: in vitro CYP450 inhibition; format: in vitro ADME
CYP2B6 = test: CYP induction in primary cultures of cryopreserved hepatocytes; format: in vitro ADME
CYP1A2 = test: as above; format: in vitro ADME
P-glucoprotein (P-gp) = P-glucoprotein (P-gp) (Homo sapiens, UniProt P08183); test: efflux transporter inhibition in vitro; format: in vitro ADME
[8] = molecular target: organic anion transporting polypeptide (OATP) 1B1 (Homo sapiens, UniProt Q9Y6L6); test: uptake transporter inhibition in vitro; format: in vitro ADME; conditions: read-out: IC50 OATP1B1
OATP1B3 = OATP1B3 (Homo sapiens, UniProt Q9NPD5); test: uptake transporter inhibition in vitro; format: in vitro ADME
Sequence of OATP1B3 (Q9NPD5 whole entry): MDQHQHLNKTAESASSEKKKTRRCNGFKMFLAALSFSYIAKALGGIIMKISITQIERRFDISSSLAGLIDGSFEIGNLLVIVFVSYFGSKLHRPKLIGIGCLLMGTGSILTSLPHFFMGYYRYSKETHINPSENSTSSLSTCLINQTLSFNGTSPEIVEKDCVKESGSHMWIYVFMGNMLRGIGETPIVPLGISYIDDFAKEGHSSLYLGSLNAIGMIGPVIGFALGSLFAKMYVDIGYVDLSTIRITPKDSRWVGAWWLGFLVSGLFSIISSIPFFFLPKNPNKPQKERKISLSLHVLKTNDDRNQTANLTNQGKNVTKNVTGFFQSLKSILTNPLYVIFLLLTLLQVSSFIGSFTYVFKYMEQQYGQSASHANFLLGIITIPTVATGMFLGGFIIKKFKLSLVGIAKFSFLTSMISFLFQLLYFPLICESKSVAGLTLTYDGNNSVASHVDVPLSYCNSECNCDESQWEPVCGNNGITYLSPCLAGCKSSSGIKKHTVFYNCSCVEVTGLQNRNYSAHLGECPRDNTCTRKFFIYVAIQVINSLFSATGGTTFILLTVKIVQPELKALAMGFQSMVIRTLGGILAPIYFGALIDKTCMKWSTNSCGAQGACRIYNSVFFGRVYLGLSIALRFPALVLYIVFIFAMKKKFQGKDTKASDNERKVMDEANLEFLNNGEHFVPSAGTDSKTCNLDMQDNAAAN

OAT1 = OAT1 (Homo sapiens, UniProt Q4U2R8); test: transporter inhibition in vitro; format: in vitro ADME
Sequence of OAT1 (Q4U2R8 whole entry): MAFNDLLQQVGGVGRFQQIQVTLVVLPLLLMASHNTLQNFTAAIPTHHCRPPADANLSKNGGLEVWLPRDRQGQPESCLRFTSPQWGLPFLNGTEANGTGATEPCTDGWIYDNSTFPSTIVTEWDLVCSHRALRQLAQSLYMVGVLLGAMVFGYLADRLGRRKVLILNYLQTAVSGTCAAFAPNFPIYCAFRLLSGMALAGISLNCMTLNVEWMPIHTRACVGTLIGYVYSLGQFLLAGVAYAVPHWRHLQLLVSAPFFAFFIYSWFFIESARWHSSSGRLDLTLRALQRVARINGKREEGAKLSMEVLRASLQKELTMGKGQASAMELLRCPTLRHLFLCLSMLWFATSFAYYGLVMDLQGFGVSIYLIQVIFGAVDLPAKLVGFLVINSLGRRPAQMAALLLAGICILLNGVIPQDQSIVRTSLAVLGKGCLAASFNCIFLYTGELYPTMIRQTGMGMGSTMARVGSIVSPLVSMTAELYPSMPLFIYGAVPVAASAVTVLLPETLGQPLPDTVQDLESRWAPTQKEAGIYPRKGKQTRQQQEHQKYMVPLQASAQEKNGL

[9] = single agent therapy in subjects, toxicities; format: in vivo
[10] = pre-clinical toxicity studies; format: in vivo
[11] = po, depending on dose and formulation, read-out: mean % F

Sequence of LXRβ (P55055 whole entry): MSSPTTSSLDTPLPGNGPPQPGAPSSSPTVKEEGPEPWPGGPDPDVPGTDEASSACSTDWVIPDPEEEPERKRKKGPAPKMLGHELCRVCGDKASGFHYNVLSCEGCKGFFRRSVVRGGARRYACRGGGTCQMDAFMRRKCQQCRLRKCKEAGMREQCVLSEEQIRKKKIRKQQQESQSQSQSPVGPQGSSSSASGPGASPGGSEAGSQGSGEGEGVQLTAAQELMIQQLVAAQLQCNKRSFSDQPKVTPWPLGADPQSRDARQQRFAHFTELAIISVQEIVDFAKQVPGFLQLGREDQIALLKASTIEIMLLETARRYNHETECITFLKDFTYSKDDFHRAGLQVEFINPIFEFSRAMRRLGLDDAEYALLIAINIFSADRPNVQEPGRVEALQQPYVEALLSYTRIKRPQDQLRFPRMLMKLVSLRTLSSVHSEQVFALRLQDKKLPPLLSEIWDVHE

C[C@H](CCOc1cccc(CC(=O)O)c1)N(Cc1cccc(C(F)(F)F)c1Cl)CC(c1ccccc1)c1ccccc1 [2-[3-[(3R)-3-[[2-chloro-3-(trifluoromethyl)phenyl]methyl-(2,2-diphenylethyl)amino]butoxy]phenyl]acetic acid]
specificity for LXRβ than LXRα (LXRβ; from EC50 values): approximately 2.9 fold
EC50 (LXRβ; read-out: median effective concentration (EC50) for LXRβ): 118 nM
EC50 (LXRα): 336 nM
tumor growth (mouse melanoma; 50 mg/kg in combination with anti-PD1 therapy, tumors otherwise resistant to PD-1 inhibition): significant suppression of tumor growth
inhibition of tumor growth (mouse melanoma; combination with anti-CTLA-4 antibody relative to either therapy alone): superior
tumor growth inhibition (mouse melanoma; in combination with an anti-PD-1 antibody, model otherwise not responsive to anti-PD-1 antibody): > 80%
anti-tumor efficacy (mouse melanoma; in combination with dacarbazine, compared to either treatment alone): > 80%
anti-tumor activity ([1]; animal models of glioblastoma, triple negative breast cancer (TNBC) and lung cancer): demonstrated
inhibition of primary tumor growth ([1]; extent varied with model): 48-95%
suppression of cancer cell invasion (cancer cells): ~45%
inhibition of endothelial recruitment (endothelial cells): ~50%
reduction of MDSCs in circulation (MDSCs; in circulation): ~40%
reduction of MDSCs in tumors (MDSCs; in tumors): > 60%
ApoE gene expression induction (ApoE): 3 fold
inhibition of metastatic spread of cancer cells (TNBC metastasis): ~9 fold
exposures at minimum efficacious doses (tumor growth; 25-40 mg/kg/day PO): 10,000-50,000 ng-h/mL
minimum efficacious doses (tumor growth; administered orally (PO)): 25 to 40 mg/kg/day
hERG channel conductance [2]: significant increase, but not inhibition
compound-related effects on qualitative ECG parameters (PR or QTc intervals or QRS duration) [3]: no
mean heart rate ([3]; Day 1 post-dose interval, significant in females at 150 (stepped down to 100) mg/kg/day, not considered adverse): dose related decrease in mean heart rate
half-life ([4]; CD-1, mouse, plasma, po, mice, read-out: mean apparent oral half-life (t½)): 6.5 to 8 h
Tmax ([4]; both sexes, mouse, plasma, po, CD-1 mice, males and females, read-out: time to maximum plasma concentration (Tmax)): 2 to 8 h
food effect: plasma concentrations higher in the fed state ([4]; mice, fed state): > 2 fold
bioavailability ([4]; mouse, plasma, CD-1 mice, oral, read-out: absolute oral bioavailability (% F)): > 100%
half-life ([5]; Sprague-Dawley, rat, plasma, po, female rats, read-out: mean apparent oral t½ (converted)): 6.5 h
clearance, female versus male rats ([5]; all dose levels, higher systemic exposure in females): cleared at a lower rate in female rats compared to males
Tmax ([5]; both sexes, rat, plasma, po, Sprague-Dawley rats, males and females): 4 to 8 h
bioavailability ([5]; rat, plasma, Sprague-Dawley rats, 30 mg/kg oral dose, read-out: combined, mean % F): ~31%
Tmax ([6]; oral dose): 4 to 8 h
bioavailability [6, 11]: 18 to 30%
half-life ([6]; po, read-out: mean apparent oral t½): 5 to 6.7 h
Tmax ([7]; oral dose): 4 h
bioavailability [7, 11]: 6 to 19%
half-life ([7]; po, read-out: mean oral t½): 5.5 to 8 h
substrate for CYP2E1 (CYP2E1): a substrate
substrate for CYP2C9 (CYP2C9): a substrate
substrate for CYP2C19 (CYP2C19): a substrate
IC50 (CYP2C8): 7500 nM
IC50 (2B6): 15000 nM
inhibition of 1A1 (1A1): very weakly inhibited
inhibition of 2A6 (2A6): very weakly inhibited
inhibition of 2C9 (2C9): very weakly inhibited
inhibition of 2C19 (2C19): very weakly inhibited
inhibition of 2D6 (2D6): very weakly inhibited
inhibition of 2E1 (2E1): very weakly inhibited
inhibition of 3A4 (3A4): very weakly inhibited
CYP2B6 induction (CYP2B6; 1 concentration in ⅓ donors): > 2 fold
potential to induce CYP2B6 (CYP2B6; cryopreserved hepatocytes): cannot be ruled out
induction of CYP1A2 (CYP1A2): did not induce
inhibition of P-gp (P-glucoprotein (P-gp)): does not inhibit
IC50 [8]: 99 nM
IC50 (OATP1B3): 3700 nM
inhibition at 50 µM (OAT1): < 50%
dose-limiting toxicity (DLT) ([9]; single agent therapy): DLT of Grade 4 neutropenia
hyperlipidemia in treated subjects ([9]; subjects treated): hyperlipidemia has been observed
liver function [10]: Liver function abnormalities have been observed

From patent US20220331274A1, “METHODS OF TREATING CANCER” (Inspirna, Inc., priority 2019, published 2022)
